Test results reported in publication PMC4865820, “Branched Peptide, B2088, Disrupts the Supramolecular Organization of Lipopolysaccharides and Sensitizes the Gram-negative Bacteria” (Scientific Reports, 2016).
Positions of bridges follow the written chain, without caps; N, C: chain ends. Residues, ends and D or L forms follow the SMILES beside them. Chains are numbered I, II in the order given.

Assays:
P. aeruginosa ATCC 9027 = assay: Outer membrane permeability assay (NPN); type: cell-based; conditions: no unit in table; Fig. S5 axis [Peptide], μM; 10 μM NPN, 5 mM HEPES pH 7.4, ex 355/em 405 nm; average of two titrations; read-out: PC50 (peptide concentration for half-maximal NPN intensity, OM permeability)
Method: The ability of each peptide to permeabilize the OM of Gram-negative organisms was determined using the hydrophobic fluorescent probe 1-N-phenylnaphthylamine (NPN) as previously reported. P. aeruginosa ATCC 9027 cells from an overnight MHB culture were harvested after centrifuging at 3000 rpm for 10 minutes. The pellet was washed twice, suspended in 5 mM HEPES (N- 2-hydroxyethylpiperazine-N’-2 ethanesulfonic acid) buffer (pH 7.4) and adjusted to an OD600 of 0.200. A suspension containing 600 μl of bacteria cells and 1 μl of a concentrated stock solution of NPN was mixed into a 10 mm stirred quartz cuvette so that the final concentration of the probe remained 10 μM. Aliquots containing 1 μl of each peptide in various concentrations (100, 50, 25, 15, 10, 5, 2.5 and 1 μg/ml) were added upon NPN dye stabilization. The fluorescence intensity was monitored using a Quanta Master spectrophotometer with a constant slit width of 0.5 nm, excitation and emission wavelengths set at 355 nm and 405 nm respectively. The peptide concentration required for half-maximal intensity (PC50) was determined by sigmoidal curve fitting using Graphpad Prism software. The experimental data is average of two independent titration experiments.

K. pneumonia 4299 = assay: microbe, parasite or virus in culture; type: cell-based, K. pneumoniae; conditions: 24 h
Method: (§1) MIC of each peptide was determined using the microdilution method in a 96 well microtitre plates (SPL Life Sciences Co., Ltd, Korea). Two-fold serial dilutions of each peptide in Mueller-Hinton Broth (MHB) was prepared from a 1 mg/ml stock solution of the peptide in the same broth, to obtain a final concentration in the range of 0.0976–50 μg/ml in each well. Bacterial suspensions (P. aeruginosa ATCC 27853, P. aeruginosa 4877, P. aeruginosa 23155, K. pneumoniae ATCC 10031 and K. pneumoniae 4299) were prepared by suspending the overnight cultured bacteria in saline and adjusting the inoculum to ~10^8 colony forming units (CFU) per ml. A further 150-fold dilution was then prepared in MHB to achieve a final cell density of 10^5–10^6 CFU/ml. In each well, 100 μl of inoculum was mixed with the equal volume of peptides at their 2× concentration. Positive and negative controls contained 200 μl of inoculum (without any peptide) and broth alone (no peptide/inoculum) respectively. Another negative control in which MHB containing 200 μl of peptide alone in its highest concentration tested (50 μg/ml) was also included to ensure that the optical density measured in the test wells was not due to turbidity of the peptides in solution. The 96 well polystyrene plates were then incubated at 37 °C for 24 h and the optical density at 600 nm (OD600) was measured every 30 min continuously using a TECAN microplate reader (TECAN Infinite 200, Austria). All the experiments were performed in two independent duplicates and the MIC was determined as the lowest peptide concentration in which no visible growth was observed.

P. aeruginosa 23155 = type: cell-based; conditions: 23155, 24 h
Method: as §1

K. pneumoniae ATCC10031 = type: cell-based; conditions: ATCC10031, 24 h
Method: as §1

[1] = system: LPS (E. coli serotype 055:B5); assay: BODIPY TR cadaverine (BC) displacement assay with LPS; type: binding; conditions: no unit in table; ED50 values in μM; 5 mM HEPES pH 7.4; duplicates; read-out: BC50 (LPS binding)
Text: To investigate the interaction of B2088 with LPS, we performed the BODIPY TR cadaverine (BC) displacement assay reported by Wood et al.[22]. The probe binds to the lipid A part of the LPS with moderate affinity and can be displaced by putative LPS-binding molecules. The method was used to probe the affinity of polycationic molecules and LPS binding proteins. First, we determined the affinity of polymyxin B (PMB), a lipopeptide cyclic antibiotic which has a high affinity for LPS. […] Figure 1a,b show the concentration-dependent displacement of LPS/lipid A-bound BC upon addition of B2088. […] To confirm the importance of branching, we determined the BC50 for a linear retrodimer having the amino acid sequence, […] (Fig. 1d). The determined value was 2-fold higher (3.9 ± 0.1 μM) than that of B2088, confirming a weaker affinity of the linear peptide.
The BC displacement assay was used to determine the ability of each peptide to bind to LPS. The florescent probe, BODIPY TR cadaverine (BC) was purchased from Molecular Probes/ Invitrogen (USA). A stock solution containing 1 mg/ml of LPS (E. coli serotype 055:B5) was prepared in dimethyl sulfoxide (DMSO) and another stock solution containing 1 mg/ml of BC dye was prepared in 5 mM HEPES buffer (pH 7.4). The optimum saturation concentration of BC:LPS ratio was standardized following the protocol provided by Wood et al. (22). From the BC stock, 240 μl was mixed with 500 μl from the LPS stock solution in 5 mM HEPES buffer (pH 7.4) to prepare 20 ml of BC:LPS mixture. Two-fold serial dilutions of each peptide in 5 mM HEPES buffer (pH 7.4) was prepared from their 1 mg/ml stock solutions to obtain a final range of 0.02–25.6 μM. The BC:LPS mixture was added to 100 μl of each peptide congener in a 1:1 ratio in each well of a 96-well black Costar™ polystyrene microtitre plate (Corning Incorporated, NY, USA). The maximum fluorescence intensity (Fmax) was determined using a mixture containing 100 μl PMB (50 μg/ml) and 100 μl BC:LPS solution, as PMB is considered the ‘gold standard’ for LPS-sequestering agents. The minimum fluorescence intensity (F0) was measured using 200 μl of BC:LPS mixture to determine the background noise for this experiment. Fluorescence measurements for each peptide (F) were determined using a microplate reader (Model: TECAN Infinite 200, Austria) with excitation and emission wavelengths set at 580 nm and 620 nm respectively. The percentage of BC displacement was then calculated using the formula: […]
The experiments were performed in duplicates and the effective concentration required for 50% displacement of BC dye (ED50) from LPS with respect to PMB was determined by curve fitting using Graphpad Prism (CA, USA). A higher ED50 value for the peptide indicates a lower affinity for LPS.

P. aeruginosa DR4877/07 = type: cell-based; conditions: for Fractional inhibitory concentration of peptide/PMB, combination with Chloarm / Fractional inhibitory concentration of peptide/PMB, combination with Erythro / Fractional inhibitory concentration of peptide/PMB, combination with Levo / Fractional inhibitory concentration of peptide/PMB, combination with Tobra: first number in parenthesis; for Fractional inhibitory concentration of antibiotic, Chloarm combination / Fractional inhibitory concentration of antibiotic, Erythro combination / Fractional inhibitory concentration of antibiotic, Levo combination / Fractional inhibitory concentration of antibiotic, Tobra combination: second number in parenthesis
Method: (§2) The synergism between peptides with conventional antibiotics was evaluated using checkerboard assays. For a comparison polymyxin B (PMB) was also tested against each antibiotic. From their stock solutions, two-fold dilutions of each antibiotic and peptide to 1× MIC were prepared in MHB. 50 μl of each peptide concentration was added into the wells of a 96-well polystyrene plates (SPL Life Sciences Co. Ltd, Korea) in a horizontal orientation and the same volume of each antibiotic concentration were then added in a vertical orientation. Bacterial suspensions were prepared in MHB to yield final cell density of ~10^6 CFU/ml and 100 μl of bacterial suspension was mixed with each peptide-antibiotic combinations. This procedure was repeated for wells containing 200 μl of peptide alone and 200 μl of antibiotic alone in various concentrations. The positive and negative controls contained 200 μl of inoculum and MHB alone respectively. The plates were incubated at 37 °C for 24 hours and the optical density at 600 nm (OD600) was monitored as before. Fractional inhibitory concentration index (FICI) for all antibiotic- peptide combinations was calculated through the summation of (MIC of peptide in the combination/ MIC of peptide alone) and (MIC of antibiotics in combination/MIC of antibiotic alone). The experiments were performed in two independent duplicates and the combinations that gave the lowest FICI values was reported.

P. aeruginosa ATCC 27853 [2] = type: cell-based; conditions: ATCC 27853; for Fractional inhibitory concentration of peptide/PMB, combination with Genta: first number in parenthesis; for Fractional inhibitory concentration of antibiotic, Genta combination: second number in parenthesis
Method: as §2

P. aeruginosa ATCC 27853 [3] = assay: microbe, parasite or virus in culture; type: cell-based; conditions: ATCC 27853, 24 h
Method: as §1

Row | Compound | EC50 (P. aeruginosa ATCC 9027) [µM] | Minimum Inhibitory Concentration against K. pneumonia 4299 (K. pneumonia 4299) [µM] | Minimum Inhibitory Concentration against P. aeruginosa 23155 (P. aeruginosa 23155) [µM] | Minimum Inhibitory Concentration against K. pneumoniae ATCC10031 (K. pneumoniae ATCC10031) [µM] | EC50 [1] [µM] | Fractional inhibitory concentration of peptide/PMB, combination with Chloarm (P. aeruginosa DR4877/07) | Fractional inhibitory concentration of peptide/PMB, combination with Erythro (P. aeruginosa DR4877/07) | Fractional inhibitory concentration of peptide/PMB, combination with Levo (P. aeruginosa DR4877/07) | Fractional inhibitory concentration of peptide/PMB, combination with Tobra (P. aeruginosa DR4877/07) | Fractional inhibitory concentration of antibiotic, Chloarm combination (P. aeruginosa DR4877/07) | Fractional inhibitory concentration of antibiotic, Erythro combination (P. aeruginosa DR4877/07) | Fractional inhibitory concentration of antibiotic, Levo combination (P. aeruginosa DR4877/07) | Fractional inhibitory concentration of antibiotic, Tobra combination (P. aeruginosa DR4877/07) | Fractional inhibitory concentration of peptide/PMB, combination with Genta (P. aeruginosa ATCC 27853 [2]) | Fractional inhibitory concentration of antibiotic, Genta combination (P. aeruginosa ATCC 27853 [2]) | Minimum Inhibitory Concentration against P. aeruginosa ATCC 27853 (P. aeruginosa ATCC 27853 [3]) [µM]
1 | CC[C@H](C)[C@H](NC(=O)[C@H](CCCCN)NC(=O)[C@H](CCCNC(=N)N)NC(=O)CNC(=O)[C@@H](N)CCCNC(=N)N)C(=O)N[C@H](C(=O)N[C@@H](CCCNC(=N)N)C(=O)N[C@@H](CCCNC(=N)N)C(=O)NCCCC[C@H](NC(=O)[C@H](CCCNC(=N)N)NC(=O)[C@H](CCCNC(=N)N)NC(=O)[C@@H](NC(=O)[C@@H](NC(=O)[C@H](CCCCN)NC(=O)[C@H](CCCNC(=N)N)NC(=O)CNC(=O)[C@@H](N)CCCNC(=N)N)[C@@H](C)CC)[C@@H](C)CC)C(=O)N[C@@H](CCCCN)C(=O)O)[C@@H](C)CC (I: H-RGRKIIRRKK-OH / II: H-RGRKIIRR; amide I:9-II:C; N-terminus and C-terminus assumed) | 17 ± 0.2 | 5.3 | 5.3 | 2.7 | 1.44 ± 0.02 | 0.5 | (0.5,0.5) | 0.5 | 0.5 | 0.25 | (0.5,0.5) | 0.13 | 0.06 | 0.5 | 0.01 | 2.7
2 | CC(C)C[C@H](NC(=O)[C@H](CCCCN)NC(=O)[C@H](CCCNC(=N)N)NC(=O)CNC(=O)[C@@H](N)CCCNC(=N)N)C(=O)N[C@@H](CC(C)C)C(=O)N[C@@H](CCCNC(=N)N)C(=O)N[C@@H](CCCNC(=N)N)C(=O)NCCCC[C@H](NC(=O)[C@H](CCCNC(=N)N)NC(=O)[C@H](CCCNC(=N)N)NC(=O)[C@H](CC(C)C)NC(=O)[C@H](CC(C)C)NC(=O)[C@H](CCCCN)NC(=O)[C@H](CCCNC(=N)N)NC(=O)CNC(=O)[C@@H](N)CCCNC(=N)N)C(=O)N[C@@H](CCCCN)C(=O)O (I: H-RGRKLLRRKK-OH / II: H-RGRKLLRR; amide I:9-II:C; N-terminus and C-terminus assumed) | 17.5 ± 0.4 | 5.3 | 2.7 | 5.3 | 1.47 ± 0.02 | 0.25 | (0.5,0.5) | 0.5 | (0.25,0.25) | 0.13 | (0.5,0.5) | 0.06 | (0.25,0.25) | (0.25,0.25) | (0.25,0.25) | 2.7
3 | C[C@H](NC(=O)[C@H](C)NC(=O)[C@H](CCCCN)NC(=O)[C@H](CCCNC(=N)N)NC(=O)CNC(=O)[C@@H](N)CCCNC(=N)N)C(=O)N[C@@H](CCCNC(=N)N)C(=O)N[C@@H](CCCNC(=N)N)C(=O)NCCCC[C@H](NC(=O)[C@H](CCCNC(=N)N)NC(=O)[C@H](CCCNC(=N)N)NC(=O)[C@H](C)NC(=O)[C@H](C)NC(=O)[C@H](CCCCN)NC(=O)[C@H](CCCNC(=N)N)NC(=O)CNC(=O)[C@@H](N)CCCNC(=N)N)C(=O)N[C@@H](CCCCN)C(=O)O (I: H-RGRKAARRKK-OH / II: H-RGRKAARR; amide I:9-II:C; N-terminus and C-terminus assumed) | 21.7 ± 0.8 | 23 | 11.5 | 11.5 | 2.1 ± 0.2 | 0.5 | (0.5,0.5) | 0.5 | 0.5 | 0.13 | (0.5,0.5) | 0.25 | 0.25 | 0.5 | 0.06 | 11.5
